Results on 2 compounds are retold here after patent US20260034112A1, “MULTI-CYCLIC IRAK1 AND IRAK4 INHIBITING COMPOUNDS AND USES THEREOF” (CHILDREN'S HOSPITAL MEDICAL CENTER, priority 2022, published 2026).

pIC50: −log10 of the molar value. Where two headings read alike, the source gives them in different places.

Assay [1] relates to NF-kB activity upon TLR2 stimulation with PAM3CSK4 in THP1-Blue NF-kB SEAP reporter cells. Briefly: THP1-Blue NF-kB SEAP reporter assay, TLR2 stimulation with PAM3CSK4. Type of assay: cell-based, human. Particulars: for pIC50: read-out: IC50 vs. Pam3CSK4 (TLR2-mediated NF-kB activation). For orientation: In a reporter assay the amount or activity of a reporter protein is the signal.

In assay [2] the test system is MDS/AML cell lines and patient-derived samples. Briefly: Clonogenic assay (colony formation in methylcellulose). Type of assay: cell-based, human. The conditions noted are these: for Inhibition of colony formation: MDSL, TF1, AML1714, AML1294, methylcellulose.
Where [3] appears, read: Homo sapiens, THP-1, THP1 NF-kB reporter cells.

The pIC50 is the negative decadic logarithm of the IC50, by convention in mol/L. As to `Cc1cc(-c2nc(C(=O)Nc3cc4oc(N5CCOCC5)nc4nc3N3CC[C@@H](O)C3)co2)ccn1` [CA-4948, emavusertib], the negative-log IC50 (pIC50) in assay [1] (setting [3]) is 6.30. Besides, the “Sensitivity of IRAK1KO MDS/AML cells (growth, colony formation)” value in assay [2] (IRAK1KO versus WT THP1 and MDSL cells) is “more sensitive”. Also, the “Inhibition of colony formation” value in assay [2] is on record as “dose-dependent, yet incomplete, inhibition of colony formation”.
By IC50 is commonly meant the concentration at which inhibition is half-maximal. Turning to `CC[C@@H]1[C@H](F)C(=O)N[C@@H]1COc1nccc2cc(C(N)=O)c(OC)cc12` [PF-06650833, Zimlovisertib], the results for the negative logarithm of the IC50 (pIC50) in assay [1] (setting [3]) and in assay [1] (THP1 NF-kB reporter cells) were 8.14 and 8.15, respectively. In addition, the IC50 in assay [1] (Homo sapiens, THP-1, Table 1, unit nM, read-out: THP-1 NFkB PAM IC50) came to 496 nM. Besides, in assay [1] (THP1 NF-kB reporter cells, result in words), the “Suppression of NF-kB signaling through TLR2” value is on record as “fully suppress”. In addition, the “LOG (PAM)” value in assay [1] (Table 1, log of PAM IC50) is given as 2.70. The “Inhibition of colony formation” value in assay [2] was “inhibition of colony formation by MDSL and TF1 cells but was less effective at suppressing the patient-derived AML samples”.
